Experimental data taken from publication PMC9572773, “Effects of Extracts and Flavonoids from Drosera rotundifolia L. on Ciliary Beat Frequency and Murine Airway Smooth Muscle” (Molecules, 2022).
Blank lines part the entries; values can stand above or below the compound they belong to.

Columns and labels:
[1] = test system: ciliated tracheal epithelium cells; assay: Ciliary beat frequency (CBF) of murine tracheal slices; type: cell-based, C57BL/6N mice; settings: for CBFRatio (related to CBFBasal): mean ± SD
Protocol: Male and female C57BL/6N mice (Charles River, Sulzfeld, Germany, and own breeding at the Institute of Pharmaceutical and Medicinal Chemistry, University of Münster, Germany) were housed under standard conditions. Animal care followed the rules of German laws (Az. 53.5.32.7.1/MS-12668, Health and Veterinary Office Münster, Germany). The mice were sacrificed using CO2. Murine tracheal explants were placed in LHC-9 medium (Invitrogen, CA, USA), cut into 0.5 mm slices and stored at 37 °C and an atmosphere of 5% CO2. The medium was changed every 3 days. CBF was measured up to 7 days after dissection. Slices were placed in a 0.7 mL perfusion chamber at 37 °C and perfused with Krebs–Henseleit buffer (1 mL/min). The tissue bath was located at an inverted Nikon Eclipse Ti2 microscope (Nikon GmbH, Düsseldorf, Germany) with a 100× oil objective. Drosera dry extract (0.2 mg/mL) was solved in Krebs–Henseleit buffer containing 0.3% DMSO (DE). The amount of DMSO was not exceeding 0.3%; as for this concentration, no effects on CBF were reported. DFA was prepared as described above. […] 2″-O-Galloylhyperoside, ATP and salbutamol were solved without DMSO. In case DMSO was added, all test solutions of one experiment contained the same amount of DMSO. […] Videos were captured and analyzed by the SAVA software (Ammons Engineering, Clio, MI, USA). Ciliated cells exerted baseline frequencies in a range of 5 to 20 Hz, in agreement with the literature. Data were normalized to values of the last 5 min before changing to a test solution (CBFbasal), and effects on ciliary beating were expressed as a ratio (CBFRatio).

[2] = biological target: T1, PDE1A (Homo sapiens, UniProt P54750); assay: PDE1A inhibitor assay (fluorescence polarization, cell-free); type: biochemical; settings: for IC50: cell-free, duplicates, 1% DMSO, CI = confidence interval
T1 construct: purchased Biomol (Hamburg, Germany) #60310
Protocol: The activity of PDE4D and PDE1A was measured with assay kits #60345 and #60310 from Biomol (Hamburg, Germany). Assays were based on fluorescence polarization using fluorescein amidites-labeled cAMP and were performed according to the manufacturer’s instructions. Samples were recorded as duplicates in a 96-well plate containing equal amounts of DMSO (1%). The fluorescence polarization was measured at excitation wavelengths between 480 and 516 nm and emission wavelengths between 530 and 540 nm by using the plate reader CLARIOstar (BMG Labtech, Ortenberg, Germany). The IC50 values were calculated by a fitting of sigmoidal dose–response curves (variable slope) with GraphPad Prism version 3.00 for Windows (GraphPad, San Diego, CA, USA).

[3] = test system: guinea-pig ileum; set-up: method as in PMID 11933852; settings: 10 µM; cited from earlier work
[4] = biological target: T2, PDE4D (Homo sapiens, UniProt Q08499); assay: PDE4D inhibitor assay (fluorescence polarization, cell-free); type: biochemical; settings: for IC50: cell-free, duplicates, 1% DMSO, CI = confidence interval
T2 construct: purchased Biomol (Hamburg, Germany) #60345
Protocol: Assays were based on fluorescence polarization using fluorescein amidites-labeled cAMP and were performed according to the manufacturer’s instructions. Samples were recorded as duplicates in a 96-well plate containing equal amounts of DMSO (1%). […] The IC50 values were calculated by a fitting of sigmoidal dose–response curves (variable slope) with GraphPad Prism version 3.00 for Windows (GraphPad, San Diego, CA, USA).

[5] = test system: airway smooth muscle of mouse tracheal slices, acetylcholine-induced contraction; assay: ACh-induced contraction of mouse tracheal slices (tissue bath); type: cell-based, C57BL/6N mice
Text: Male and female C57BL/6N mice (Charles River, Sulzfeld, Germany, and own breeding at the Institute of Pharmaceutical and Medicinal Chemistry, University of Münster, Germany) were housed under standard conditions. Animal care followed the rules of German laws (Az. 53.5.32.7.1/MS-12668, Health and Veterinary Office Münster, Germany). The mice were sacrificed using CO2. A Mayflower horizontal tissue bath (Hugo Sachs Elektronik, Germany) was used to measure contractions. Murine tracheal slices of 3 mm were placed in the 5 mL tissue bath at a preload of 0.2 cN. Krebs–Henseleit buffer (37 °C) was continuously gassed (O2:CO2 95:5). Drosera dry extract (0.5 mg/mL) was solved in Krebs–Henseleit buffer containing 1 % DMSO (DE). DFA was obtained as described above. […] Control solutions contained equal amounts of DMSO depending on the respective test compound. Experiments were started after an equilibration time of 60 min. Tracheal tension was measured isometrically (force transducer F10 Type 375, amplifier TAM-A Type 705/1, evaluation software HSE ACAD 2.0, Harvard Apparatus GmbH, March-Hugstetten, Germany). […] Test solutions were added 10 min before the next ACh bolus. When using a high potassium solution (60 mM K^+), NaCl concentration was reduced to maintain osmolarity. At least 3 K^+-induced contractions (each 20 min) were averaged and taken as control contraction. The maximal contraction represents the highest value, while the plateau (plat.) was calculated in minutes 19–20.

T1 sequence (P54750 whole entry): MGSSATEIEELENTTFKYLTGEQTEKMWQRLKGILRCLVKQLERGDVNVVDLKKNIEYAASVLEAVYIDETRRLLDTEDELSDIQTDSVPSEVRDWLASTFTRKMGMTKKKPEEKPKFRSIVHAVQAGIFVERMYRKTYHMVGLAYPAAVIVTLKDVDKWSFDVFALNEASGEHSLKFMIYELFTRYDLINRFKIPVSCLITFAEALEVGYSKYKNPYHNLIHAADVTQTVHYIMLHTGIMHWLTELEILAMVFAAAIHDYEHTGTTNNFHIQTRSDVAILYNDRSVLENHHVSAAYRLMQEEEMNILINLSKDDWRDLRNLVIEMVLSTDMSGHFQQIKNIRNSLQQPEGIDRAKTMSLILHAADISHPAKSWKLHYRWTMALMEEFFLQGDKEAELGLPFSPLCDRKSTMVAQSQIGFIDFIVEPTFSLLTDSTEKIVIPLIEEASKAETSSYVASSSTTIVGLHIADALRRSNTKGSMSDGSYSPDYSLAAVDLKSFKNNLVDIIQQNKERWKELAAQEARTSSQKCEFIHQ
T2 sequence (Q08499 303-809 limits assumed): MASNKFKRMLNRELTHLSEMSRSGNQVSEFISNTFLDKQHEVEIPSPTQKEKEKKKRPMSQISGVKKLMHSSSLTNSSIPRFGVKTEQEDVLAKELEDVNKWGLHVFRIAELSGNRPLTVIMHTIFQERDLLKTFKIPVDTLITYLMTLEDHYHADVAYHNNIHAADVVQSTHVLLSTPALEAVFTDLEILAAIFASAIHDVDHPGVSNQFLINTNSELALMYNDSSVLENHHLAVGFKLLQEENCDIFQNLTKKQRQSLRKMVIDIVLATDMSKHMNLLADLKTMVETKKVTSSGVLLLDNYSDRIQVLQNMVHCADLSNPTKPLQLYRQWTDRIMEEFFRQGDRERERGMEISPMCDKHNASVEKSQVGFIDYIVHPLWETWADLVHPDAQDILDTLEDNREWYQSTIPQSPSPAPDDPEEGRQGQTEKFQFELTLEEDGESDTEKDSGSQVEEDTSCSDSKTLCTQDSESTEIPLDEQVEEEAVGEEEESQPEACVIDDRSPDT

SMILES: CC(C)(C)NCC(O)c1ccc(O)c(CO)c1 (stereo not drawn) [salbutamol]
CBFRatio (related to CBFBasal) ([1]; 50 µM, minutes 5 to 10): 1.4 ± 0.3

SMILES: Nc1ncnc2c1ncn2[C@@H]1O[C@H](COP(=O)(O)OP(=O)(O)OP(=O)(O)O)[C@@H](O)[C@H]1O [ATP]
CBFRatio (related to CBFBasal) ([1]; 30 µM, minutes 10 to 15): 1.4 ± 0.2

SMILES: COCc1nc2c([nH]1)c(=O)n(C)c(=O)n2CC(C)C [8MmIBMX, 8-methoxymethyl-IBMX]
IC50 [2]: 12 µM
PDE4D activity (% of control without inhibitor) ([4]; 50 µM): 77 ± 6%
PDE4D activity (% of control without inhibitor) ([4]; 100 µM): 70 ± 2%
increase of CBF on average ([1]; 100 µM): 20%
CBFRatio (related to CBFBasal) ([1]; 100 µM, minutes 10 to 15): 1.2 ± 0.1

Further lines, with some results ahead:

IC50 [2]: 4 µM
IC50 [4]: 2000 nM
SMILES: O=c1c(O)c(-c2ccc(O)c(O)c2)oc2cc(O)cc(O)c12 [quercetin]
inhibition of carbachol-induced contractions [3]: more than 50%
CBFRatio (related to CBFBasal) ([1]; 30 µM, minutes 10 to 15): 1.2 ± 0.2
abrogation of ACh-induced contraction on ASM ([5]; 10 µM): failed to abrogate
activity at 25 µM ([5]; Mus musculus, 25 µM, 10 min pretreatment, read-out: effect of 100 µM ACh (contraction force, % of control)): 74 ± 11%
activity at 50 µM ([5]; Mus musculus, 50 µM, 10 min pretreatment, read-out: effect of 100 µM ACh (contraction force, % of control)): 63 ± 7%
activity at 100 µM ([5]; Mus musculus, 100 µM, 10 min pretreatment, read-out: effect of 100 µM ACh (contraction force, % of control)): 21 ± 2%

IC50 [4]: 3000 nM
SMILES: O=c1c(O[C@@H]2O[C@H](CO)[C@H](O)[C@H](O)[C@H]2O)c(-c2ccc(O)c(O)c2)oc2cc(O)cc(O)c12 [Hyperoside, hyperoside]
ACh-mediated contraction force, % of control ([5]; 50 to 750 µM, all concentrations tested, 100 µM ACh): approximately 80%
maximal reduction of ACh-induced contraction force ([5]; maximal effect): 20–25%

remaining activity at 100 µM ([2]; 100 µM, read-out: PDE1A activity (% of control without inhibitor)): 98.2 ± 0.6%
remaining activity at 300 µM ([2]; 300 µM, read-out: PDE1A activity (% of control without inhibitor)): 92 ± 2%
SMILES: COc1ccc(C2CNC(=O)C2)cc1OC1CCCC1 (stereo not drawn) [rolipram]
increase of CBF on average ([1]; 30 µM): 20%
CBFRatio (related to CBFBasal) ([1]; 30 µM, minutes 10 to 15): 1.2 ± 0.2

IC50 [2]: 3 µM
IC50 [4]: 1100 nM
SMILES: O=C(O[C@H]1[C@H](Oc2c(-c3ccc(O)c(O)c3)oc3cc(O)cc(O)c3c2=O)O[C@H](CO)[C@H](O)[C@@H]1O)c1cc(O)c(O)c(O)c1 [2″-O-galloylhyperoside]
CBFRatio (related to CBFBasal) ([1]; 300 µM, minutes 10 to 15): 1.11 ± 0.04
ACh-induced contraction, % of control ([5]; 500 µM, 10 min pretreatment, 100 µM ACh): 61 ± 21%
ACh-induced contraction compared with the effect at 500 µM ([5]; 750 and 1000 µM, 100 µM ACh): did not significantly differ
